Measurements: PubChem BioAssay (NCI)
Several values for one entry are separate records, joined by “and”; a condition that tells them apart may be missing. Identical values can stand only once.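 Briefly, cells in 96-well plates were exposed to five compound concentrations for 48 h, and endpoints were estimated by linear interpolation. Abbreviation: GI50, concentration required for 50% inhibition of growth. TGI marks complete inhibition of growth.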 Where a SMILES comes first, the peptide text is derived from it. [ ]: non-standard residue; d: D form. Orn = NCCC[CH](N)C(=O)O

Legend:
Test in all cases: NCI anticancer screen, dose series, 48 h
[1] = system: COLO 205 colon
[2] = system: DU-145 prostate
[3] = system: EKVX NSCLC
[4] = system: HOP-92 NSCLC
[5] = system: MOLT-4 leukemia
[6] = system: NCI-H23 lung
[7] = system: PC-3 prostate
[8] = system: SN12C renal
[9] = system: SNB-19 CNS
[10] = system: UACC-257 melanoma

SMILES | GI50 [1] | TGI [1] | GI50 [2] | TGI [2] | GI50 [3] | TGI [3] | GI50 [4] | TGI [4] | GI50 [5] | TGI [5] [µM] | GI50 [6] | TGI [6] | GI50 [7] | TGI [7] | GI50 [8] | TGI [8] | GI50 [9] | TGI [9] | GI50 [10] | TGI [10]
O=CNc1ccc2c(c1)Cc1cc([N+](=O)[O-])ccc1-2 | 2.87 µM | > 100 µM | 2.83 µM | > 100 µM | 0.657 µM | > 100 µM | 6.97 µM | > 100 µM | 2.78 µM | > 53.1 | 4.61 µM | > 100 µM | 4.87 µM | > 100 µM | > 26.2 µM | > 100 µM | 5.63 µM | > 100 µM | 5.39 µM | > 100 µM
CC(C)CC1NC(=O)C(CCCN)NC(=O)C(C(C)C)NC(=O)C2CCCN2C(=O)C(Cc2ccccc2)NC(=O)C(CC(C)C)NC(=O)C(CCCN)NC(=O)C(C(C)C)NC(=O)C2CCCN2C(=O)C(Cc2ccccc2)NC1=O (configuration not stated) (cyclo(FPV[Orn]LFPV[Orn]L); configuration not given here) | < 0.00325 µM | 0.00419 µM | 0.0184 µM and 0.0529 µM | 1.45 µM and 1.97 µM | 0.0105 µM and 0.0175 µM | 0.442 µM and 1.23 µM | 0.00661 µM and 0.0126 µM | 0.0204 µM and 0.0545 µM | 0.0236 µM | 0.402 | 0.00835 µM and 0.0192 µM | 0.101 µM and 0.175 µM | 0.00703 µM | 0.14 µM and 1.12 µM | 0.0111 µM and 0.0288 µM | 0.419 µM and 1.13 µM | < 0.00325 µM | 0.486 µM and 1.38 µM | 0.00872 µM and 0.0145 µM | 0.048 µM and 0.0705 µM
CNC(=S)N/N=C(/C)CCC/C(C)=N/NC(=S)NC | – | > 100 µM | – | > 100 µM | – | > 100 µM | – | > 100 µM | – | 0.303 | – | > 100 µM | – | > 100 µM | – | > 100 µM | – | > 100 µM | – | > 100 µM
O=C(Nc1cccc2ccccc12)c1cc2ccccc2cc1O | 9.76 µM | 23.7 µM | 3.84 µM | > 100 µM | 1.77 µM | 6.18 µM | 0.969 µM | 4.25 µM | 3.08 µM | 21.5 | 1.9 µM | 8.84 µM | 2 µM | 8.48 µM | 2.4 µM | 9.97 µM | 3.17 µM | > 100 µM | 1.6 µM | 5.03 µM
Cc1cccc2c(=O)c3c(sc12)c(NCCN)nc1ccccc13 | 0.826 µM | 1.65 µM | 0.981 µM | 1.97 µM | 0.815 µM | 1.71 µM | 0.691 µM | 2.45 µM | 0.887 µM | 1.8 | 0.87 µM | 1.96 µM | 0.717 µM | 1.49 µM | 0.754 µM | 1.54 µM | 0.948 µM | 2.56 µM | 0.966 µM | 1.99 µM
COc1ccc2c(c1)N(CCC1CCCCN1C)c1ccccc1S2 (configuration not stated) | – | 30.9 µM | – | 26.2 µM | – | 36.5 µM | – | 22.6 µM | – | 17.2 | – | 35.2 µM | – | 22.7 µM | – | 29.4 µM | – | 28.9 µM | – | 17.3 µM
COc1ccc2c(c1)c(=O)oc1cc(OC/C(=N\O)c3ccc(F)cc3)ccc12 | 15.6 µM | 34.6 µM | 33.3 µM | > 100 µM | 30.2 µM | > 100 µM | 24.9 µM | 72.2 µM | 18.1 µM | > 100 | 20.4 µM | 54.3 µM | 24.1 µM | 79 µM | 16.9 µM | 34.3 µM | 12.2 µM | 58.8 µM | 25.4 µM | 91.1 µM
CCOC(=O)C1=C(N)Oc2cc(OC)ccc2C1c1ccc(F)c(F)c1 (configuration not stated) | 1.05 µM | 8.97 µM | 2.56 µM | 11.4 µM | 3.67 µM | 17.9 µM | 3.54 µM | 19.4 µM | 1.58 µM | 22.3 | 2.89 µM | 18.4 µM | 2.33 µM | 15.1 µM | 4.97 µM | 19.5 µM | 1.83 µM | 17.4 µM | 11.5 µM | 24 µM
Cc1cc(NC(=O)C(=O)Cc2nc3ccccc3s2)ccc1Cl | – | > 100 µM | – | > 100 µM | – | > 100 µM | – | > 100 µM | – | > 100 | – | > 100 µM | – | > 100 µM | – | > 100 µM | – | > 100 µM | – | > 100 µM
Cc1cc(Cl)ccc1Nc1nc(C(F)(F)F)ccc1C(=O)N/N=C/c1ccc(F)cc1 | 1.61 µM | 3.64 µM | 3.46 µM | 13.8 µM | 1.13 µM | 8.17 µM | 1.75 µM | 6.14 µM | 1.6 µM | 4.98 | 2.57 µM | 11.5 µM | 1.85 µM | 8.64 µM | 2.56 µM | 11.4 µM | 2.11 µM | 12 µM | 1.33 µM | 3.67 µM
C(#Cc1ccccc1C#Cc1ccccn1)c1ccc(OCCCCCCOc2ccc(C#Cc3ccccc3C#Cc3ccccn3)cc2)cc1 | 8.35 µM | 15.6 µM | 6.36 µM | 13 µM | 5.09 µM | 22.9 µM | 4.91 µM | 12 µM | 0.225 µM | 5.41 | 6.45 µM | 16.2 µM | 5.18 µM | 14 µM | 2.35 µM | 11.6 µM | 4.39 µM | 11.4 µM | 5.92 µM | 12.7 µM
Nc1nn(C(=O)Nc2ccc(Cc3ccccc3)cc2)c2ccccc12 | 13.4 µM | 37.7 µM | 1.02 µM | 28.3 µM | 11.2 µM | 92 µM | 14.2 µM | 42.6 µM | 0.636 µM | 20.4 | 16.8 µM | 83.5 µM | 13.5 µM | 51.1 µM | 12.9 µM | 28 µM | 22.8 µM | > 100 µM | 10 µM | 50.9 µM
COc1cc([C@@H]2c3cc4c(cc3[C@H](O)[C@H]3COC(=O)[C@@H]23)OCO4)cc(OC)c1OC | 0.347 µM and 0.132 µM | 1.3 µM and 0.431 µM | 0.544 µM and 0.237 µM | – | 0.434 µM | > 100 µM | – | > 88.6 µM | 0.587 µM and 0.845 µM | > 100 | 0.78 µM and 0.239 µM | > 100 µM | 0.362 µM and 0.51 µM | > 100 µM | 0.677 µM and 0.4 µM | > 100 µM | 0.462 µM and 0.231 µM | > 100 µM | > 100 µM | > 100 µM
CCCNNC(=O)c1ccc(CNC(=O)/C=C/c2ccccc2)cc1 | 0.0909 µM | 0.292 µM | 0.218 µM | > 100 µM | 0.311 µM | > 100 µM | 0.0821 µM | 0.609 µM | 0.106 µM | > 100 | 0.228 µM | > 23.5 µM | 0.173 µM | > 100 µM | 0.313 µM | > 100 µM | 0.314 µM | > 100 µM | 0.15 µM | –
NS(=O)(=O)c1ccc(NCc2cnc3ccccc3c2)cc1 | – | > 100 µM | – | > 100 µM | – | > 100 µM | – | > 100 µM | – | > 100 | – | > 100 µM | – | > 100 µM | – | > 100 µM | – | > 100 µM | – | > 100 µM
CSc1ccc2c(c1)C(=O)c1c-2n(CCCN=[N+]=[N-])c(=O)c2cc([N+](=O)[O-])ccc12 | > 23.7 µM | > 100 µM | 1.73 µM | > 100 µM | > 100 µM | > 100 µM | 5.24 µM | > 100 µM | 0.371 µM | 6.38 | 3.48 µM | > 100 µM | 5.58 µM | > 100 µM | 1.63 µM | > 100 µM | 1.18 µM | > 100 µM | 39.9 µM | > 100 µM
COc1cc2c3c(n(CCCN4CCOCC4)c(=O)c2cc1OC)-c1cc2c(cc1C3=O)OCO2 | 40.4 µM | > 100 µM | 0.612 µM | > 21.6 µM | 50.9 µM | > 100 µM | 3.21 µM | > 91.5 µM | 0.0841 µM | 1.81 | 1.97 µM | 27.2 µM | 18.7 µM | > 100 µM | 0.821 µM | > 100 µM | > 38.6 µM | > 100 µM | > 51.5 µM | > 100 µM
